Results reported in patent publication US9371331B2, “Modulators of methyl modifying enzymes, compositions and uses thereof” (Constellation Pharmaceuticals, Inc., priority 2012, dated 2016).
Where two headings read alike, the source gives them in different places.

Key:
[1] = target: EZH2 (rPRC2) (Homo sapiens, UniProt Q15910); experiment: EZH2 assay: rPRC2, biotinylated oligonucleosomes, 3H SAM methyl transfer (FlashPlate scintillation); type: biochemical; settings: biotinylated oligonucleosome substrate
EZH2 (rPRC2), sequence (Q15910 whole entry): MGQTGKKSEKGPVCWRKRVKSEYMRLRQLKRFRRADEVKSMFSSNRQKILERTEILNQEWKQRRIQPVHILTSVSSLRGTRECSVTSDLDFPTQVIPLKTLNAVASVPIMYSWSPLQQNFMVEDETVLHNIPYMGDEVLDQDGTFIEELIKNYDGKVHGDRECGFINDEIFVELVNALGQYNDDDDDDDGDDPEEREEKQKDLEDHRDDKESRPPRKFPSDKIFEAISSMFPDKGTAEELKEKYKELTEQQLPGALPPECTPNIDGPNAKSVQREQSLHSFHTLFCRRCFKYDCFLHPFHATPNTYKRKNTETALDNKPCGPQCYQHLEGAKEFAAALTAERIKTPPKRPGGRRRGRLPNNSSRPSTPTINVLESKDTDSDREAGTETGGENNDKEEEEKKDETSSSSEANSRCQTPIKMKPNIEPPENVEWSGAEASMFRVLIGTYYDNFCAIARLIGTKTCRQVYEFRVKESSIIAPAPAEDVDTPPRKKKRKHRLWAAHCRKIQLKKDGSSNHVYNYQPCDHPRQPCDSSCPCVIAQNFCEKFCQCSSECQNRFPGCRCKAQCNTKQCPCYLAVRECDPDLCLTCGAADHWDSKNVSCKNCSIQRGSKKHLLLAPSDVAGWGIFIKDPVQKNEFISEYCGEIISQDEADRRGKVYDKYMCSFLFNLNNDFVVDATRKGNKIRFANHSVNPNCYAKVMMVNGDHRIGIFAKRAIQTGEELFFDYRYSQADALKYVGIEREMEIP
EZH2 (rPRC2), sequence (O75530 whole entry partner): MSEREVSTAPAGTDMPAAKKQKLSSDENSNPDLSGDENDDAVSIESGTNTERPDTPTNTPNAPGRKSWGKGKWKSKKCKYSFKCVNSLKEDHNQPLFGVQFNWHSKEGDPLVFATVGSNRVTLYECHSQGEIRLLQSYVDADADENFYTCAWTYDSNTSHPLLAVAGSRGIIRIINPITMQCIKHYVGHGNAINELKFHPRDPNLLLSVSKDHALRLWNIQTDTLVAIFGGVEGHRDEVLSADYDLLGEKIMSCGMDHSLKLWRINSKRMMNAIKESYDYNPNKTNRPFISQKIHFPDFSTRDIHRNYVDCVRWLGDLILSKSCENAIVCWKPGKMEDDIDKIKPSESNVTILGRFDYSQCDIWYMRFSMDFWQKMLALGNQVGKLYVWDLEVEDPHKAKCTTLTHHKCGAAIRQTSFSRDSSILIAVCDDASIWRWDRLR
EZH2 (rPRC2), sequence (Q15022 whole entry partner): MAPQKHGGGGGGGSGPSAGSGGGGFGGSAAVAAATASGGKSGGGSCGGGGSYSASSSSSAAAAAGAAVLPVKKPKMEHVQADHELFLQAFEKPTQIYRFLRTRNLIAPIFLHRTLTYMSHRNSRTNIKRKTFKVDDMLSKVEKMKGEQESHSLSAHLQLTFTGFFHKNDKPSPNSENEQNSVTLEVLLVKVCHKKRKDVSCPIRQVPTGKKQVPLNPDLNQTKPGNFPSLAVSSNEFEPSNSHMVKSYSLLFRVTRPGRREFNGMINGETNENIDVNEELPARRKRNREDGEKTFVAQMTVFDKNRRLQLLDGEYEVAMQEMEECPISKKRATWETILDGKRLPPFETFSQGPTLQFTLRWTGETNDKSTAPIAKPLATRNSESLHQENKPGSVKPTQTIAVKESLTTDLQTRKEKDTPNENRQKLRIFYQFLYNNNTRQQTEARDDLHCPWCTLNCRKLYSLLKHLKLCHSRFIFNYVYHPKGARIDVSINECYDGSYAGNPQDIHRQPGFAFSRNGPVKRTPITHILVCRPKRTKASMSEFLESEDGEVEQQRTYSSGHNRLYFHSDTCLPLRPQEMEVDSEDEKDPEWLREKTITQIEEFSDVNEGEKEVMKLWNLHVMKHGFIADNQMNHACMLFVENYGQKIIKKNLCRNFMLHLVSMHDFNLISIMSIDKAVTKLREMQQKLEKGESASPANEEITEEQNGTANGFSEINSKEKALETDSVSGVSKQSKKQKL

[2] = target: Y641N EZH2 (Homo sapiens, UniProt Q15910, Y641N); experiment: Y641N EZH2 assay: as EZH2 assay, with reconstituted H3K27Me2 oligonucleosomes as substrate; type: biochemical
Y641N EZH2, sequence (Q15910 whole entry Y641N): as the sequence (Q15910 whole entry) above, with Y641N counted along it
Y641N EZH2, sequence (O75530 whole entry partner): as the sequence (O75530 whole entry partner) above
Y641N EZH2, sequence (Q15022 whole entry partner): as the sequence (Q15022 whole entry partner) above

[3] = system: H3K27me3 mark in HeLa cells; experiment: H3K27me3 MSD Hela Assay; type: cell-based; settings: Homo sapiens, read-out: H3K27me3_MSD_HeLa_ (EC50)
Experimental: Trypsinized HeLa cells were counted and diluted in 10% DMEM (Life Technologies, Cat. #10569) to 5000 cells/75 μL. Seventy-five […] of cells were place in each well of a 96-well flat-bottomed plate and incubated at 37° C. for 4 hours. Twenty-five μL of test compound (at various concentrations) was added to the cells and incubation continued at 37° C. for 96 hours. Media was then removed and the cells rinsed once with ice cold PBS. Forty μL of ice-cold MSD Buffer AT (10 mM HEPES, pH 7.9, 5 mM MgCl2, 0.25M sucrose, Benzonase (1:10000), 1% Triton X-100 supplemented with fresh 1× Protease Inhibitor cocktail and 1 mM 4-(2-Aminoethyl)benzenesulfonyl fluoride hydrochloride (AEBSF)) was added to each well and the plates placed on ice for 30 minutes. Ten μL of 5M NaCl was then added to each well and incubation on ice continued for another 15 minutes. The material in each well was suspended pipetting up and down and then transferred to a new 96 well plate. The emptied wells were rinsed with 150 uL ice-cold 20 mM Tris pH 7.5, 1 mM EDTA, 1 mM EGTA, supplemented with fresh 1× Protease Inhibitor cocktail and 1 mM AEBSF (“NO salt NO detergent buffer) and transferred to the respective wells in the new plate. Three hundred μL of NO Salt NO detergent buffer was then added to each well of lysates and the plates frozen at −80° C.
On the same day, an appropriate number of MSD standard bind 96-well plates were coated with 30 μL/well of total H3 capture antibody (Millipore. Cat #MAB3422) at 1 μg/mL concentration in PBS. The antibody solution was evenly distributed first by tapping gently on the sides of the plates and then by shaking the plates for a few minutes at 1000 rpm. Antibody coated plates were stored at 4° C. overnight.
The next day the lysates are thawed to RT. The antibody coated MSD plates are washed 3× with TBS-T (Tris-buffered saline (Fisher Scientific, Cat #BP2471-1)+0.2% Tween-20). One-hundred fifty μL of 5% Blocker A in TBS-T is added to each well. The wells are covered and shaken on a shaker at RT for one hour. The Blocker A step is repeated a second time. After removing the blocker, 25 μL of cell lysate is transferred into each antibody coated well. The plates are shaken for 2 hours at RT, the lysate removed and the plates again washed with Blocker A in TBS-T. Twenty-five μL of appropriate freshly prepared antibody mix (including both primary and secondary antibodies) is added to each well and the plates shaken for 1 hour at RT.
Both H3 antibodies were obtained from Cell Signalling (Cat #s 4499 and 9733). The goat anti-rabbit antibody was obtained from Meso-Scale Discovery (Cat #R32AB-1).
The antibody mix was then removed and the wells washed with Blocker A. One hundred-fifty μL of freshly prepared 1×MSD Read Buffer (Meso-Scale Discovery; Cat #R927C-2) was then added to each well and the plates read on a MSD Sector 2400 Plate Reader.
Data was analyzed using Assay Assistant (Constellation Pharmaceuticals In-house product) and Activity Base (IDBS Ltd, Surrey, UK) template. Data files were imported to Assay Assistant and assay conditions were specified. A unique Analysis ID was created and the data files exported to Activity Base. An analysis template was created on Activity Base to measure dose-dependent inhibition of H3K27me3 mark and cell viability respectively. Readout of DMSO wells were used to normalize the data. Resulting curves were fitted using Activity base software Model 205 (IDBS Ltd. Surrey, UK). The data was checked for quality, validated and integrated in excel format using SARview (IDBS Ltd, Surrey, UK).

[4] = EZH2 IC50, wild-type EZH2 (rPRC2)
[5] = Y641N EZH2 IC50, Y641N mutant EZH2, H3K27Me2 oligonucleosome substrate
[6] = wild-type EZH2 (rPRC2), read-out: EZH2 IC50
[7] = Y641N mutant EZH2, H3K27Me2 oligonucleosome substrate, read-out: Y641N EZH2 IC50

COc1cc(C(C)n2c(C)c(C(=O)NCc3c(C)cc(C)[nH]c3=O)c3cccnc32)ccn1 (racemic) [Compound 207, (±)-N-((4,6-dimethyl-2-oxo-1,2-dihydropyridin-3-yl)methyl)-1-(1-(2-methoxypyridin-4-yl)ethyl)-2-methyl-1H-pyrrolo[2,3-b]pyridine-3-carboxamide]
IC50 [1, 4]: < 100 nM
IC50 [2, 5]: 100 to 1000 nM
EC50 ([3]; HeLa, 96 h): 2000 to 10000 nM

Cc1cc(C)c(CNC(=O)c2c(C)n(C(C)c3cccc(S(C)(=O)=O)c3)c3ccccc23)c(=O)[nH]1 (racemic) [Compound 210, (±)-N-((4,6-dimethyl-2-oxo-1,2-dihydropyridin-3-yl)methyl)-2-methyl-1-(1-(3-(methylsulfonyl)phenyl)ethyl)-1H-indole-3-carboxamide]
IC50 [1, 4]: < 100 nM
IC50 [2, 5]: 100 to 1000 nM
EC50 ([3]; HeLa, 96 h): 2000 to 10000 nM

Cc1cc(C)c(CNC(=O)c2c(C)n(C(C)C3CC3)c3ncccc23)c(=O)[nH]1 (racemic) [Compound 211, (±)-1-(1-cyclopropylethyl)-N-((4,6-dimethyl-2-oxo-1,2-dihydropyridin-3-yl)methyl)-2-methyl-1H-pyrrolo[2,3-b]pyridine-3-carboxamide]
IC50 [1, 4]: < 100 nM
IC50 [2, 5]: 100 to 1000 nM
EC50 ([3]; HeLa, 96 h): 400 to 2000 nM

CCOCC(C)n1c(C)c(C(=O)NCc2c(OC)cc(C)[nH]c2=O)c2cccnc21 (racemic) [Compound 212, (±)-1-(1-ethoxypropan-2-yl)-N-((4-methoxy-6-methyl-2-oxo-1,2-dihydropyridin-3-yl)methyl)-2-methyl-1H-pyrrolo[2,3-b]pyridine-3-carboxamide]
IC50 [1, 4]: < 100 nM
IC50 [2, 5]: 100 to 1000 nM
EC50 ([3]; HeLa, 96 h): 400 to 2000 nM

COc1cncc(C(C)n2c(C)c(C(=O)NCc3c(C)cc(C)[nH]c3=O)c3cccnc32)c1 (racemic) [Compound 215, (±)-N-((4,6-dimethyl-2-oxo-1,2-dihydropyridin-3-yl)methyl)-1-(1-(5-methoxypyridin-3-yl)ethyl)-2-methyl-1H-pyrrolo[2,3-b]pyridine-3-carboxamide]
IC50 [1, 4]: 100 to 1000 nM
IC50 [2, 5]: 1000 to 10000 nM
EC50 ([3]; HeLa, 96 h): 2000 to 10000 nM

Cc1cc(C)c(CNC(=O)c2c(C)n(C(C)c3ccn(C)c(=O)c3)c3ccccc23)c(=O)[nH]1 (racemic) [Compound 222, (±)-N-((4,6-dimethyl-2-oxo-1,2-dihydropyridin-3-yl)methyl)-2-methyl-1-(1-(1-methyl-2-oxo-1,2-dihydropyridin-4-yl)ethyl)-1H-indole-3-carboxamide]
IC50 [1, 4]: 100 to 1000 nM
IC50 [2, 5]: 100 to 1000 nM
EC50 ([3]; HeLa, 96 h): > 10000 nM

COCC(C)n1c(C)c(C(=O)NCc2c(OC)cc(C)[nH]c2=O)c2cc(F)ccc21 (racemic) [Compound 230, (±)-5-fluoro-N-((4-methoxy-6-methyl-2-oxo-1,2-dihydropyridin-3-yl)methyl)-1-(1-methoxypropan-2-yl)-2-methyl-1H-indole-3-carboxamide]
IC50 [1, 4]: < 100 nM
IC50 [2, 5]: 100 to 1000 nM
EC50 ([3]; HeLa, 96 h): 400 to 2000 nM

COCC(C)n1c(C)c(C(=O)NCc2c(OC)cc(C)[nH]c2=O)c2ccc(F)cc21 (racemic) [Compound 231, (±)-6-fluoro-N-((4-methoxy-6-methyl-2-oxo-1,2-dihydropyridin-3-yl)methyl)-1-(1-methoxypropan-2-yl)-2-methyl-1H-indole-3-carboxamide]
IC50 [1, 4]: < 100 nM
IC50 [2, 5]: 100 to 1000 nM
EC50 ([3]; HeLa, 96 h): 400 to 2000 nM

Cc1cc(C)c(CNC(=O)c2c(C)n(C(C)Cn3cnc4ccccc43)c3ncccc23)c(=O)[nH]1 (racemic) [Compound 238, (±)-1-(1-(1H-benzo[d]imidazol-1-yl)propan-2-yl)-N-((4,6-dimethyl-2-oxo-1,2-dihydropyridin-3-yl)methyl)-2-methyl-1H-pyrrolo[2,3-b]pyridine-3-carboxamide]
IC50 [1, 6]: 100 to 1000 nM
IC50 [2, 7]: 1000 to 10000 nM
EC50 ([3]; HeLa cells, MSD, 96 hours): 2000 to 10000 nM

COc1cc(C)[nH]c(=O)c1CNC(=O)c1c(C)n(C(C)c2cccc(C#N)c2)c2ncccc12 (racemic) [Compound 239, (±)-1-(1-(3-cyanophenyl)ethyl)-N-((4-methoxy-6-methyl-2-oxo-1,2-dihydropyridin-3-yl)methyl)-2-methyl-1H-pyrrolo[2,3-b]pyridine-3-carboxamide]
IC50 [1, 4]: < 100 nM
IC50 [2, 5]: < 100 nM
EC50 ([3]; HeLa, 96 h): 400 to 2000 nM

COCC(C)n1c(C)c(C(=O)NCc2c(C)cc(C)[nH]c2=O)c2ccncc21 (racemic) [Compound 240, (±)-N-((4,6-dimethyl-2-oxo-1,2-dihydropyridin-3-yl)methyl)-1-(1-methoxypropan-2-yl)-2-methyl-1H-pyrrolo[2,3-c]pyridine-3-carboxamide]
IC50 [1, 4]: < 100 nM
IC50 [2, 5]: 100 to 1000 nM
EC50 ([3]; HeLa, 96 h): 2000 to 10000 nM

COc1cc(C)[nH]c(=O)c1CNC(=O)c1c(C)n(C(C)c2cccc(C(N)=O)c2)c2ncccc12 (racemic) [Compound 242, (±)-1-(1-(3-carbamoylphenyl)ethyl)-N-((4-methoxy-6-methyl-2-oxo-1,2-dihydropyridin-3-yl)methyl)-2-methyl-1H-pyrrolo[2,3-b]pyridine-3-carboxamide]
IC50 [1, 6]: < 100 nM
IC50 [2, 7]: 100 to 1000 nM
EC50 ([3]; HeLa cells, MSD, 96 hours): 2000 to 10000 nM

COc1cc(C)[nH]c(=O)c1CNC(=O)c1c(C)n(C(C)c2ccccc2)c2cnccc12 (racemic) [Compound 243, (±)-N-((4-methoxy-6-methyl-2-oxo-1,2-dihydropyridin-3-yl)methyl)-2-methyl-1-(1-phenylethyl)-1H-pyrrolo[2,3-c]pyridine-3-carboxamide]
IC50 [1, 4]: < 100 nM
IC50 [2, 5]: 100 to 1000 nM
EC50 ([3]; HeLa, 96 h): 2000 to 10000 nM

Cc1cc(C)c(CNC(=O)c2c(C)n(C(C)CS(C)(=O)=O)c3ncccc23)c(=O)[nH]1 (racemic) [Compound 250, (±)-N-((4,6-dimethyl-2-oxo-1,2-dihydropyridin-3-yl)methyl)-2-methyl-1-(1-(methylsulfonyl)propan-2-yl)-1H-pyrrolo[2,3-b]pyridine-3-carboxamide]
IC50 [1, 6]: < 100 nM
IC50 [2, 7]: 100 to 1000 nM
EC50 ([3]; HeLa cells, MSD, 96 hours): 2000 to 10000 nM

COCC(C)n1c(C)c(C(=O)NCc2c(C)cc(C)[nH]c2=O)c2scnc21 (racemic) [Compound 254, (±)-N-((4,6-dimethyl-2-oxo-1,2-dihydropyridin-3-yl)methyl)-4-(1-methoxypropan-2-yl)-5-methyl-4H-pyrrolo[2,3-d]thiazole-6-carboxamide]
IC50 [1, 6]: 100 to 1000 nM
IC50 [2, 7]: 100 to 1000 nM
EC50 ([3]; HeLa cells, MSD, 96 hours): 2000 to 10000 nM

COc1cc(C)[nH]c(=O)c1CNC(=O)c1c(C)n(C(C)C2(C)COC2)c2ccccc12 (racemic) [Compound 291]
IC50 [1, 4]: < 100 nM
IC50 [2, 5]: 100 to 1000 nM
EC50 ([3]; HeLa, 96 h): 400 to 2000 nM

Cc1cc(C)c(CNC(=O)c2c(C)n(C(C)c3ccccc3)c3ncccc23)c(=O)[nH]1 (single isomer, unassigned) [Compound 116, N-((4,6-dimethyl-2-oxo-1,2-dihydropyridin-3-yl)methyl)-2-methyl-1-(1-phenylethyl)-1H-pyrrolo[2,3-b]pyridine-3-carboxamide]
IC50 [1, 4]: < 100 nM
IC50 [2, 5]: 100 to 1000 nM
EC50 ([3]; HeLa, 96 h): 400 to 2000 nM

Cc1cc(C)c(CNC(=O)c2c(C)n(C(C)c3cccc(C#N)c3)c3ccccc23)c(=O)[nH]1 (single isomer, unassigned) [Compound 227, (R or S)-1-(1-(3-cyanophenyl)ethyl)-N-((4,6-dimethyl-2-oxo-1,2-dihydropyridin-3-yl)methyl)-2-methyl-1H-indole-3-carboxamide]
IC50 [1, 4]: < 100 nM
IC50 [2, 5]: < 100 nM
EC50 ([3]; HeLa, 96 h): 400 to 2000 nM
